Where “and” joins values, the source holds several entries; their conditions need not be identical. Equal entries are not always repeated.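 All cell lines were grown in 96-well plates and treated with compound for 48 hours. The concentration for 50% growth inhibition is given as GI50. The concentration for full growth arrest is given as TGI.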
What was measured:
Assay in all cases: NCI anticancer screen, dose series, 48 h
HCC-2998 colon = system: HCC-2998 colon
OVCAR-8 ovarian = system: OVCAR-8 ovarian
SK-OV-3 ovarian = system: SK-OV-3 ovarian
BT-549 breast = system: BT-549 breast
HCT-116 colon = system: HCT-116 colon
MALME-3M melanoma = system: MALME-3M melanoma
HT29 colon = system: HT29 colon
PC-3 prostate = system: PC-3 prostate

Structure (SMILES)	GI50 (HCC-2998 colon)	TGI (HCC-2998 colon)	GI50 (OVCAR-8 ovarian)	TGI (OVCAR-8 ovarian) [µM]	GI50 (SK-OV-3 ovarian)	TGI (SK-OV-3 ovarian)	GI50 (BT-549 breast)	TGI (BT-549 breast)	GI50 (HCT-116 colon)	TGI (HCT-116 colon)	GI50 (MALME-3M melanoma)	TGI (MALME-3M melanoma)	GI50 (HT29 colon)	TGI (HT29 colon)	GI50 (PC-3 prostate)	TGI (PC-3 prostate) [µM]
CC(C)n1cc(-c2ccc3c(c2)N(C)CC3)c2c(NS(=O)(=O)c3ccn(C)n3)ccnc21	> 100 µM	> 100 µM	72.7 µM	> 100	> 100 µM	> 100 µM	25.3 µM	> 100 µM	48 µM	> 100 µM	> 100 µM	> 100 µM	71.9 µM	> 100 µM	45.2 µM	> 100
Cc1nc2ccc(-n3ncc(C(=O)c4cc5ccccc5[nH]4)c3N)cc2[nH]1	14.4 µM	> 100 µM	7.08 µM	> 100	14 µM	> 100 µM	5.43 µM	38.6 µM	4.51 µM	> 100 µM	13.9 µM	83.1 µM	5.13 µM	66.9 µM	9.65 µM	> 100
CC(C)C[C@H](NC(=O)[C@@H](Cc1ccccc1)n1ccc(Nc2ccccc2)cc1=O)B(O)O	0.353 µM	1.36 µM	1.88 µM	74.6	0.653 µM	18.8 µM	0.289 µM	2.35 µM	0.257 µM	1.23 µM	0.382 µM	2.48 µM	0.342 µM	15.5 µM	2.25 µM	19.6
O=C(O)CN1C(=O)OC(c2ccccc2)C1=O (stereo unspecified)	–	–	–	> 100	–	> 100 µM	–	> 100 µM	–	> 100 µM	–	> 100 µM	–	> 100 µM	–	> 100
CCN1C(=O)/C(=c2\sc3n(c2=O)C2C(NN=3)N(CC)C(=O)N2CC)c2ccccc21 (stereo unspecified)	0.859 µM	> 76.8 µM	0.665 µM	> 100	2.12 µM	> 55.7 µM	1.37 µM	14.4 µM	0.463 µM	> 54.3 µM	0.596 µM	> 100 µM	0.369 µM	> 100 µM	0.46 µM	> 100
COc1ccc2c(c1)OCC1c3cc(OC)c4ccccc4c3OC21 (stereo unspecified)	1.98 µM	7.26 µM	44.4 µM	> 100	15.9 µM	> 100 µM	11.5 µM	97.2 µM	6.65 µM	> 100 µM	5.01 µM	> 100 µM	3.84 µM	> 100 µM	8.82 µM	> 100
Nc1c(C(=O)Nc2cccc(Cl)c2)sc2nc3c(cc12)C(O)CCC3 (stereo unspecified)	2.39 µM	25.7 µM	0.714 µM	22.9	0.534 µM	22.2 µM	3.14 µM	38.5 µM	0.44 µM	19.1 µM	0.485 µM	33.3 µM	0.315 µM	12.2 µM	0.416 µM	25.2
COc1cccc(C(=O)NNc2nc(Cl)nc(N3CCN(C(c4ccccc4)c4ccccc4)CC3)n2)c1	1.77 µM	3.43 µM	2.02 µM	4.53	13.2 µM	26 µM	1.63 µM	3.31 µM	1.77 µM	3.73 µM	1.7 µM	3.78 µM	2.12 µM	4.8 µM	–	–
CC1(C)N=C(N)N=C(N)N1c1ccc(OCC(=O)Nc2ccc(S(=O)(=O)F)cc2Cl)c(Cl)c1	23.2 µM	> 100 µM	7.79 µM	> 100	> 100 µM	> 100 µM	58.4 µM	> 100 µM	2.7 µM	> 100 µM	33.8 µM	> 100 µM	2.57 µM	> 100 µM	0.65 µM	> 100
COC(=O)C1C(C(=O)O)C2(c3ccccc3)C(=O)C1(c1ccccc1)C(c1ccc(OC)cc1)=C2c1ccc(OC)cc1 (stereo unspecified)	13.9 µM	27.8 µM	15.9 µM	30.8	25.3 µM	59.4 µM	15.8 µM	33.6 µM	17.3 µM	33.6 µM	29.8 µM	75.7 µM	–	–	13 µM	31.3
O=C(CCN1CCCCC1)c1csc2ccccc12	–	–	–	> 100	–	> 100 µM	–	> 100 µM	–	> 100 µM	–	> 100 µM	–	> 100 µM	–	> 100
CN1C(=O)C(N=Nc2ccc([N+](=O)[O-])cc2)SC1=S (stereo unspecified)	3.21 µM and 6.71 µM	48.2 µM and 49.6 µM	4.38 µM and 11 µM	> 100	7.51 µM and 11.2 µM	74.4 µM and 51.5 µM	4.45 µM and 6.28 µM	42.8 µM and 40.6 µM	3.65 µM and 6.79 µM	29 µM and 66.3 µM	3.26 µM and 18.5 µM	19.5 µM and > 100 µM	3.63 µM and 10.8 µM	33.7 µM and > 100 µM	1.6 µM and 4.65 µM	> 100
COc1ccc(C2=C(c3ccccc3)C(=O)N3CCCC3C2)cc1 (stereo unspecified)	2.27 µM	> 55.5 µM	9.42 µM	> 100	> 100 µM	> 100 µM	32.5 µM	> 100 µM	0.0817 µM	> 100 µM	> 100 µM	> 100 µM	0.233 µM	> 100 µM	1.48 µM	> 100
CCOC(=O)C1=C(C)NC2SC(=O)/C(=C\c3cccc(Cl)c3)N2C1c1ccccc1 (stereo unspecified)	> 100 µM	> 100 µM	> 100 µM	> 100	> 100 µM	> 100 µM	> 100 µM	> 100 µM	> 100 µM	> 100 µM	28.3 µM	> 100 µM	> 100 µM	> 100 µM	> 100 µM	> 100
COc1cc(-c2oc3c(OC)c(O)c(OC)c(O)c3c(=O)c2OC)cc(OC)c1OC	–	> 100 µM	–	> 100	–	> 100 µM	–	> 100 µM	–	> 100 µM	–	> 100 µM	–	> 100 µM	–	> 100
CC(C)[C@@]12C[C@@H](OC(=O)COC(=O)c3ccccc3)[C@@](C)(O1)[C@@H]1CC[C@@H](C)[C@H]1[C@@H]2OC(=O)/C=C/c1ccccc1	> 100 µM	> 100 µM	0.134 µM	> 100	> 100 µM	> 100 µM	0.304 µM	> 100 µM	> 100 µM	> 100 µM	> 100 µM	> 100 µM	> 100 µM	> 100 µM	22.7 µM	> 100
CCCCCc1cc(/C=C2/N=C(c3ccc[nH]3)C=C2OC)[nH]c1C	–	1.02 µM	–	1.25	–	1.13 µM	–	0.292 µM	–	< 0.0387 µM	–	0.275 µM	–	0.143 µM	–	1.06
Cc1cc(O)ccc1C1(c2ccc(O)cc2C)OC(=O)c2ccccc21	18.5 µM	33.9 µM	23.3 µM	46.5	17.7 µM	32.8 µM	17.1 µM	36.4 µM	18.6 µM	33.7 µM	17.9 µM	37.9 µM	19.9 µM	35.5 µM	18 µM	35.6

Structure (SMILES)	GI50 (HCC-2998 colon)	TGI (HCC-2998 colon)	GI50 (OVCAR-8 ovarian)	TGI (OVCAR-8 ovarian) [µM]	GI50 (SK-OV-3 ovarian)	TGI (SK-OV-3 ovarian)	GI50 (BT-549 breast)	TGI (BT-549 breast)	GI50 (HCT-116 colon)	TGI (HCT-116 colon)	GI50 (MALME-3M melanoma)	TGI (MALME-3M melanoma)	GI50 (HT29 colon)	TGI (HT29 colon)	GI50 (PC-3 prostate)	TGI (PC-3 prostate) [µM]
CC(=O)OC(COc1ccc2c(c1)[n+]([O-])nc(N)[n+]2[O-])CN1CCCCC1 (stereo unspecified)	–	22.5 µM	–	41	–	–	–	> 100 µM	–	59.2 µM	–	24.2 µM	–	23.1 µM	–	–
CCN1CCN(Cc2ccc(Nc3ncc(F)c(-c4cc(F)c5nc(C)n(C(C)C)c5c4)n3)nc2)CC1	5.35 µM	11.5 µM	9.58 µM	26.2	3.22 µM	11.7 µM	6.54 µM	13.7 µM	0.336 µM	11.7 µM	0.0557 µM	10.5 µM	0.268 µM	10.8 µM	0.0527 µM	11.1
Cc1[nH]c(C(=O)Nc2cccc(OC3CCNCC3)c2)c(Cl)c1Cl	1.76 µM	3.31 µM	2.05 µM	4.31	2.07 µM	5.09 µM	4.65 µM	18.1 µM	1.65 µM	3.24 µM	1.6 µM	3.22 µM	1.92 µM	4.44 µM	1.69 µM	3.36
CCN1CCN(Cc2ccc(NC(=O)Nc3nc(-c4cc(OC)c(OC)c(OC)c4)cs3)cc2C(F)(F)F)CC1	1.8 µM	3.4 µM	–	–	1.71 µM	3.85 µM	1.91 µM	4.58 µM	1.48 µM	2.84 µM	–	–	0.39 µM	1.48 µM	1.64 µM	6.99
Cc1cc(S(=O)(=O)Nc2nc3ccccc3c(=O)n2Cc2ccco2)c(S)cc1Cl	38.6 µM	> 100 µM	57.7 µM	> 100	–	–	15.7 µM	51.9 µM	42.3 µM	> 100 µM	54.8 µM	> 100 µM	46.2 µM	> 100 µM	36.9 µM	> 100
CC1(C)CC[C@]23CC[C@]4(C)[C@H](CC[C@@H]5[C@@]6(C)CCCNC(C)(C)[C@@H]6CC[C@]54C)[C@H]2[C@H]1OC3	1.54 µM	2.97 µM	–	–	2.73 µM	7.93 µM	–	–	1.52 µM	2.88 µM	1.79 µM	3.47 µM	1.78 µM	3.63 µM	1.61 µM	3.17
CNC(=O)/C=C/C1=CN2C(=O)c3ccc(C)c(O)c3NC(OC)C2C1 (stereo unspecified)	–	< 0.0173 µM	–	0.192	–	> 8.66 µM	–	–	–	> 4.64 µM	–	0.0448 µM	–	3.29 µM	–	0.447
N#CC1=C(N)N=C(N2CCOCC2)C(C#N)C12Nc1ccccc1S2 (stereo unspecified)	–	–	4.23 µM	59.5	24.1 µM	> 100 µM	23.3 µM	60.6 µM	35.4 µM	> 100 µM	–	–	–	–	20.1 µM	> 100
Cc1ccc2ncnc(N(C)C3CCCCC3)c2c1	28.8 µM	70.2 µM	14.6 µM	63.8	33.2 µM	> 100 µM	–	–	36.7 µM	> 100 µM	56 µM	> 100 µM	–	–	27.1 µM	87.4
O=C1CCc2cc(Br)ccc2O1	–	> 100 µM	–	> 100	–	–	–	> 100 µM	–	> 100 µM	–	> 100 µM	–	> 100 µM	–	> 100
CCOC(=O)c1c(-c2ccccc2)n2c(=O)cc(C)c3c(O)c(O)cc1c32	–	–	4.23 µM	22.1	16 µM	> 100 µM	7.08 µM	24.1 µM	2.8 µM	11.9 µM	13.7 µM	33.6 µM	7.18 µM	84 µM	6.94 µM	26
O=C(O)c1ccc(CSc2nc3ccccc3[nH]2)cc1	> 100 µM	> 100 µM	> 100 µM	> 100	> 100 µM	> 100 µM	–	–	> 100 µM	> 100 µM	> 100 µM	> 100 µM	> 100 µM	> 100 µM	> 100 µM	> 100
COc1ccc2nc3cc([N+](=O)[O-])ccc3c(NCCO)c2c1	–	–	3.15 µM	18.8	2.78 µM	14.9 µM	2.88 µM	7.02 µM	2.2 µM	10.5 µM	–	–	2.34 µM	5.13 µM	–	30
CCCCCOC(=O)Nc1nc(=O)n(C2OC(C)C(O)C2O)cc1F (stereo unspecified)	271 µM	> 10000 µM	> 10000 µM	> 10000	> 10000 µM	> 10000 µM	–	–	> 10000 µM	> 10000 µM	–	–	> 10000 µM	> 10000 µM	> 10000 µM	> 10000
Clc1nc(Cl)c2ncn(-c3ccccc3)c2n1	–	–	4.4 µM	19	12.5 µM	25 µM	15.9 µM	29.5 µM	2 µM	4.69 µM	2.01 µM	7.12 µM	3.87 µM	13.5 µM	5.29 µM	20.1
O=C1NC(c2ccc3ccccc3c2)Nc2ccccc21 (stereo unspecified)	–	> 100 µM	–	> 100	–	> 100 µM	–	37.1 µM	–	> 100 µM	–	–	–	> 100 µM	–	> 100
C=C(C)COc1ccc2c(c1)CCC1C2CCC2(C)C(=O)/C(=N/O)CC12 (stereo unspecified)	–	–	–	24.1	–	22.4 µM	–	21.2 µM	–	3.08 µM	–	29.1 µM	–	2.72 µM	–	10.5

Source: PubChem BioAssay (NCI)
